Source: US11767341B2, “Lincosamide antibiotics and uses thereof” (President and Fellows of Harvard College, priority 2017, dated 2023)
Converted amounts (≈) assume the structure as drawn.

system: P. aeruginosa ATCC 27853; test: MIC determination; type: cell-based; settings: Pseudomonas aeruginosa, ATCC27853

SMILES	MIC
CCCN1CCO[C@@H]2[C@H](CN[C@@H]2C(=O)N[C@H]([C@H](C)Cl)[C@H]2OC(SC)[C@H](O)C(O)C2O)C1 (some centres unmarked) [FSA-503003]	> 64 µg/mL
CSC1O[C@H]([C@H](NC(=O)[C@H]2NC[C@@H]3CN(CC(=O)O)CCO[C@H]32)[C@H](C)Cl)C(O)C(O)[C@H]1O (some centres unmarked) [FSA-504063]	> 64 µg/mL
CSC1O[C@H]([C@H](NC(=O)[C@H]2NC[C@@H]3CN(C(=N)N)CCO[C@H]32)[C@H](C)Cl)C(O)C(O)[C@H]1O (some centres unmarked) [FSA-504057]	> 64 µg/mL

system: S. aureus BAA 977 iErmA; test: MIC determination; type: cell-based; settings: Staphylococcus aureus, BAA977

SMILES	MIC
CCCN1CCO[C@@H]2[C@H](CN[C@@H]2C(=O)N[C@H]([C@H](C)Cl)[C@H]2OC(SC)[C@H](O)C(O)C2O)C1 (some centres unmarked) [FSA-503003]	4 µg/mL (≈ 8.3 µM)

system: K. pneumoniae ATCC 10031; test: MIC determination; type: cell-based; settings: Klebsiella pneumoniae, ATCC10031

SMILES	MIC
CCCN1CCO[C@@H]2[C@H](CN[C@@H]2C(=O)N[C@H]([C@H](C)Cl)[C@H]2OC(SC)[C@H](O)C(O)C2O)C1 (some centres unmarked) [FSA-503003]	> 64 µg/mL
CSC1O[C@H]([C@H](NC(=O)[C@H]2NC[C@@H]3CN(CC(=O)O)CCO[C@H]32)[C@H](C)Cl)C(O)C(O)[C@H]1O (some centres unmarked) [FSA-504063]	> 64 µg/mL
CSC1O[C@H]([C@H](NC(=O)[C@H]2NC[C@@H]3CN(C(=N)N)CCO[C@H]32)[C@H](C)Cl)C(O)C(O)[C@H]1O (some centres unmarked) [FSA-504057]	> 64 µg/mL

system: S. aureus ATCC 29213; test: MIC determination; type: cell-based; settings: Staphylococcus aureus, ATCC29213

SMILES	MIC
CSC1O[C@H]([C@H](NC(=O)[C@H]2NC[C@@H]3CN(CC(=O)O)CCO[C@H]32)[C@H](C)Cl)C(O)C(O)[C@H]1O (some centres unmarked) [FSA-504063]	> 64 µg/mL
CSC1O[C@H]([C@H](NC(=O)[C@H]2NC[C@@H]3CN(C(=N)N)CCO[C@H]32)[C@H](C)Cl)C(O)C(O)[C@H]1O (some centres unmarked) [FSA-504057]	> 64 µg/mL

same assay, conditions: Staphylococcus aureus, ATCC29213, S. aureus ATCC 29213; read-out: MIC

SMILES	MIC
CCCN1CCO[C@@H]2[C@H](CN[C@@H]2C(=O)N[C@H]([C@H](C)Cl)[C@H]2OC(SC)[C@H](O)C(O)C2O)C1 (some centres unmarked) [FSA-503003]	4 µg/mL (≈ 8.3 µM)

system: E. coli MP-9 ΔTolC; test: MIC determination; type: cell-based; settings: Escherichia coli

SMILES	MIC
CCCN1CCO[C@@H]2[C@H](CN[C@@H]2C(=O)N[C@H]([C@H](C)Cl)[C@H]2OC(SC)[C@H](O)C(O)C2O)C1 (some centres unmarked) [FSA-503003]	> 64 µg/mL
CSC1O[C@H]([C@H](NC(=O)[C@H]2NC[C@@H]3CN(CC(=O)O)CCO[C@H]32)[C@H](C)Cl)C(O)C(O)[C@H]1O (some centres unmarked) [FSA-504063]	> 64 µg/mL
CSC1O[C@H]([C@H](NC(=O)[C@H]2NC[C@@H]3CN(C(=N)N)CCO[C@H]32)[C@H](C)Cl)C(O)C(O)[C@H]1O (some centres unmarked) [FSA-504057]	> 64 µg/mL

system: S. aureus MP-513 clinical cErm; test: MIC determination; type: cell-based; settings: Staphylococcus aureus

SMILES	MIC
CCCN1CCO[C@@H]2[C@H](CN[C@@H]2C(=O)N[C@H]([C@H](C)Cl)[C@H]2OC(SC)[C@H](O)C(O)C2O)C1 (some centres unmarked) [FSA-503003]	> 64 µg/mL
CSC1O[C@H]([C@H](NC(=O)[C@H]2NC[C@@H]3CN(CC(=O)O)CCO[C@H]32)[C@H](C)Cl)C(O)C(O)[C@H]1O (some centres unmarked) [FSA-504063]	> 64 µg/mL
CSC1O[C@H]([C@H](NC(=O)[C@H]2NC[C@@H]3CN(C(=N)N)CCO[C@H]32)[C@H](C)Cl)C(O)C(O)[C@H]1O (some centres unmarked) [FSA-504057]	> 64 µg/mL

system: E. coli ATCC 25922; test: MIC determination; type: cell-based; settings: Escherichia coli, ATCC25922

SMILES	MIC
CCCN1CCO[C@@H]2[C@H](CN[C@@H]2C(=O)N[C@H]([C@H](C)Cl)[C@H]2OC(SC)[C@H](O)C(O)C2O)C1 (some centres unmarked) [FSA-503003]	> 64 µg/mL
CSC1O[C@H]([C@H](NC(=O)[C@H]2NC[C@@H]3CN(CC(=O)O)CCO[C@H]32)[C@H](C)Cl)C(O)C(O)[C@H]1O (some centres unmarked) [FSA-504063]	> 64 µg/mL
CSC1O[C@H]([C@H](NC(=O)[C@H]2NC[C@@H]3CN(C(=N)N)CCO[C@H]32)[C@H](C)Cl)C(O)C(O)[C@H]1O (some centres unmarked) [FSA-504057]	> 64 µg/mL

system: S. aureus MP-549 msr(a) USA 300; test: MIC determination; type: cell-based; settings: Staphylococcus aureus, USA300, S. aureus MP-549 msr(a) USA 300

SMILES	MIC
CCCN1CCO[C@@H]2[C@H](CN[C@@H]2C(=O)N[C@H]([C@H](C)Cl)[C@H]2OC(SC)[C@H](O)C(O)C2O)C1 (some centres unmarked) [FSA-503003]	2 µg/mL (≈ 4.15 µM)
